Tests used:
grl−/− embryos = test: Whole-organism chemical suppressor screen: suppression of the gridlock phenotype, circulation to the tail; type: in vivo, zebrafish; conditions: for suppression of the gridlock phenotype (restoring circulation to the tail): grl−/− embryos in 96-well plates, circulation examined after 48 hours of development
Method: We arrayed grl−/− embryos in 96-well plates, exposed them to small molecules from a structurally-diverse chemical library, and examined their circulation after 48 hours of development. The compounds were purchased as 5 mg/mL stock solutions in DMSO from Cambridge Chemical.
Two of 5,000 small molecules examined suppress the gridlock phenotype in grl−/− embryos, restoring circulation to the tail (FIG. 1B). We confirmed the functional restoration of the aorta by microangiography (FIGS. 1A-B) and histology (FIGS. 1E-F).
Angioblasts in zebrafish are first evident around 14 hours postfertilization (hpf) and begin to aggregate at the midline by 16 hpf (Eriksson et al., J. Morphol. 244(3):167-176, 2000; Fouquet et al., Dev. Biol. 183(1):37-48, 1997). The lumen of the aorta begins to form in the posterior trunk at 17.5 hpf, but is not complete until just prior to the initiation of circulation 24 hpf. The critical period for gs4012 suppression is between 12 and 24 hpf (FIG. 2A).
Similarly, when gs4012 is added during gastrulation and washed away at later and later timepoints, the effectiveness of suppression is increased, reaching maximal suppression by […].

VEGF = test: Real-time PCR quantitation of gene expression after gs4012 exposure; type: in vivo, zebrafish; conditions: 24 hpf
Method: In the case of real-time PCR, groups of 20 grl−/− embryos are left untreated or treated with a gridlock suppressor. At 24 hours post fertilization, total RNA can be extracted using the Trizol method. Equivalent amounts of total RNA from each sample can be reverse transcribed into cDNA. This cDNA can serve as template for real-time PCR to determine the relative expression quantities for the genes listed above. RT-PCR can be performed with an Applied Biosystems Sequence Detection System 7000. Taqman probes and primers can be designed using zebrafish genomic sequences made publicly available by the Wellcome Trust Sanger Institute.
We used real-time PCR to quantitate the expression of several genes believed to play roles in angioblast cell fate determination or migration. […] VEGF plays an important role in formation of the aorta. VEGF122 expression in the Xenopus hypochord acts as a chemoattractant, stimulating angioblast migration to the midline prior to aorta formation (Cleaver et al., Development 125(19):3905-3914, 1998). […]

| SMILES | suppression of the gridlock phenotype (restoring circulation to the tail) (grl−/− embryos) | time at which maximal suppression is reached (grl−/− embryos; added during gastrulation and washed away at later timepoints) | reversibility of suppression after removal of the suppressor (grl−/− embryos; after removal of suppressor) | viability of rescued mutants (grl−/− embryos; after removal of suppressor) | relative potency as gridlock suppressor (grl−/− embryos; grl−/− embryos, dose response) | suppression when treatment begins after 24 hpf (grl−/− embryos; treatment begins after 24 hpf) | VEGF expression (VEGF) |
| --- | --- | --- | --- | --- | --- | --- | --- |
| O=[N+]([O-])c1ccc(SCCc2ccncc2)cc1 [gs3999] | identified as gridlock suppressors | – | – | – | – | – | – |
| COc1ccc(SCCc2ccncc2)cc1 [gs4012] | identified as gridlock suppressors | ≤ 30 hpf | suppression is irreversible | remain viable to adulthood | more potent suppressor than gs3999 | Little or no suppression | upregulated |

Reference: US20070010541A1, “Methods for treating vascular diseases” (The General Hospital Corporation, priority 2003, published 2007)
